In patent publication US20240325369A1 (priority 2021, published 2024):
“And” between values parts separate entries of the source, which are not always exact repeats. Identical values can stand only once. Like-named read-outs stand apart in the source and are kept apart here.

Tested on: metastatic castration-resistant prostate cancer (mCRPC) with DNA-repair anomalies
Method: The planned sample size was approximately 120 subjects with measurable disease who were biomarker-positive (approximately 75 subjects with DNA repair anomalies in BRCA [BRCA1 or BRCA2] and approximately 45 subjects with biallelic DNA-repair anomalies in non-BRCA [ATM, FANCA, PALB2, CHEK2, BRIP1, or HDAC2]).
Efficacy objectives were evaluated for subjects meeting the biomarker selection criteria described in the protocol. All subjects were monitored for safety during the study period, and up to 30 days after the last dose of study drug. Treatment continued until disease progression, unacceptable toxicity, death, or termination of the study by the sponsor.
Diagnosis and Main Criteria for Inclusion: The target population consisted of male subjects over the age of 18 years with mCRPC and DNA-repair anomalies (biallelic mutations and germline pathogenic mutations only for BRCA1 or BRCA2 mutations) who had received at least 1 prior taxane-based chemotherapy and at least 1 prior AR targeted therapy (second-generation or later). Subjects were asked to provide a tumor tissue sample (archival or recently collected, if available), and a blood sample for analysis of DNA-repair anomalies using a sponsor-validated assay.
Criteria for Evaluation: Efficacy assessments included chest, abdomen, and pelvis CT or MRI scans and whole-body bone scans (^99mTc) to evaluate objective response and disease progression.
The primary endpoint was ORR and summarized for the BRCA analysis set along with the 95% 2-sided exact CI. In addition, the counts and percentage of subjects in each response category (CR. PR, etc.) were tabulated. ORR in non-BRCA subjects was analyzed in the same way.
Descriptive summaries of CTC response were generated for BRCA and non-BRCA analysis sets, measurable and non-measurable subgroups and tabulated with its 2-sided 95% exact CI. Waterfall plots of percent change in CTC were also presented, showing the percentage change in CTC counts from baseline to 8 weeks, as well as maximal CTC count declines. All time to event secondary endpoints were evaluated using Kaplan-Meier method for BRCA and non-BRCA analysis sets. Median time to event and the corresponding 95% CI were provided. Descriptive summaries were provided for BRCA and non-BRCA analysis sets.
Time to degradation was determined using the following meaningful change threshold values: FACT-P Total (10-point reduction from baseline), EQ-5D-5L Index (0.09-point reduction from baseline). EQ-5D-5L VAS (10-point reduction from baseline), and BPI SF worst pain intensity item (30% reduction from baseline).
The primary endpoint was ORR, defined as the proportion of subjects with BRCA DNA-repair anomalies and measurable disease whose best response was either CR or PR as defined by RECIST 1.1 (Eisenhauer et al 2009) and who had no evidence of bone progression according to the PCWG3 criteria (Scher et al 2016).
ORR final analysis was performed approximately 6 months from Cycle 1 Day 1 of the last subject with a BRCA DNA-repair anomaly and measurable disease. Objective response as determined by investigator assessment was considered as the primary analysis.
Subjects who discontinued the study without a response assessment were considered as non-responders in the analysis. The objective response rate was calculated and its 2-sided 95% exact CI presented. In addition, the counts and percentage of subjects in each response category (CR, PR, etc.) were tabulated.
The following analyses of CTC response were performed for BRCA and non-BRCA analysis sets, measurable and non-measurable subgroups: • Descriptive summaries • CTC response rate was tabulated with its 2-sided 95% exact CI
All time to event secondary endpoints were evaluated using Kaplan-Meier method for BRCA and non-BRCA analysis sets. Median time to event and the corresponding 95% CI were provided. Descriptive summaries were provided for BRCA and non-BRCA analysis sets.

[1] = ALL, ITT (N=223), 300 mg once daily
[2] = ALL, ITT (N=223), 300 mg once daily, listed as niraparib
[3] = ALL, ITT (N=223), Kaplan-Meier, 300 mg once daily
[4] = ALL, ITT with baseline CTC >0 (N=202), 300 mg once daily
[5] = ALL, measurable ITT (N=123), 300 mg once daily
[6] = ALL, measurable ITT responders (N=31), 300 mg once daily
[7] = ALL, measurable ITT responders (N=31), Kaplan-Meier, 300 mg once daily
[8] = BRCA (n = 142), 300 mg once daily
[9] = BRCA, ITT (N=142), 300 mg once daily
[10] = BRCA, ITT (N=142), 300 mg once daily, listed as niraparib
[11] = BRCA, ITT (N=142), Kaplan-Meier, 300 mg once daily

SMILES: NC(=O)c1cccc2cn(-c3ccc([C@@H]4CCCNC4)cc3)nc12 [Niraparib, 2-[4-[(3S)-piperidin-3-yl]phenyl]-2H-indazole-7-carboxamide]
- Duration of complete response in individual subjects (2 BRCA subjects with measurable disease and complete response, 300 mg once daily): 9.7 months and 9.5 months
- Time to PSA progression: 6-month event-free rate [1]: 0.328
- Time to PSA progression: 12-month event-free rate [1]: 0.053
- Time to PSA progression: Censored, % of subjects [1]: (44.4%)
- Time to PSA progression: Censored, number of subjects [1]: 99
- Time to PSA progression: Event, % of subjects [1]: (55.6%)
- Time to PSA progression: Event, number of subjects [1]: 124
- Time to radiographic progression: 6-month event-free rate [1]: 0.494
- Time to radiographic progression: 12-month event-free rate [1]: 0.170
- Time to radiographic progression: 18-month event-free rate [1]: 0.034
- Time to radiographic progression: Censored, % of subjects [1]: (39.9%)
- Time to radiographic progression: Censored, number of subjects [1]: 89
- Time to radiographic progression: Event, % of subjects [1]: (60.1%)
- Time to radiographic progression: Event, number of subjects [1]: 134
- Time to symptomatic skeletal event: 6-month event-free rate [1]: 0.830
- Time to symptomatic skeletal event: 12-month event-free rate [1]: 0.511
- Time to symptomatic skeletal event: 18-month event-free rate [1]: 0.297
- Time to symptomatic skeletal event: 24-month event-free rate [1]: 0.297
- Time to symptomatic skeletal event: Censored, % of subjects [1]: (70.9%)
- Time to symptomatic skeletal event: Censored, number of subjects [1]: 158
- Time to symptomatic skeletal event: Event, % of subjects [1]: (29.1%)
- Time to symptomatic skeletal event: Event, number of subjects [1]: 65
- rPFS: 6-month event-free rate [1]: 0.475
- rPFS: 12-month event-free rate [1]: 0.155
- rPFS: 18-month event-free rate [1]: 0.031
- rPFS: Censored, % of subjects [1]: (35.4%)
- rPFS: Censored, number of subjects [1]: 79
- rPFS: Event, % of subjects [1]: (64.6%)
- rPFS: Event, number of subjects [1]: 144
- Time to PSA progression: Event, % of subjects [2]: 56%
- Time to radiographic progression: Event, % of subjects [2]: 60%
- Time to symptomatic skeletal event: Event, % of subjects [2]: 29%
- Time to symptomatic skeletal event: Event, number of subjects [2]: Sixty-five
- rPFS: Event, % of subjects [2]: 65%
- Time to PSA progression: time to event, 25th percentile [3]: 2.83 months
- Time to PSA progression: time to event, Median [3]: 4.63 months
- Time to radiographic progression: time to event, 25th percentile [3]: 2.76 months
- Time to radiographic progression: time to event, 75th percentile [3]: 11.07 months
- Time to radiographic progression: time to event, Median [3]: 5.78 months
- Time to symptomatic skeletal event (SSE): time to event, Median [3]: 12.88 months
- Time to symptomatic skeletal event: time to event, 25th percentile [3]: 6.97 months
- rPFS: time to event, 25th percentile [3]: 2.07 months
- rPFS: time to event, 75th percentile [3]: 11.01 months
- CTC Response (CTC = 0 at week 8), % of subjects [4]: (18.3%)
- CTC Response (CTC = 0 at week 8), number of subjects [4]: 37
- Best Overall Response: Complete Response (CR), % of subjects [5]: 1.6%
- Best Overall Response: Complete Response (CR), number of subjects [5]: 2
- Best Overall Response: Not Available (NA), % of subjects [5]: 12.2%
- Best Overall Response: Not Available (NA), number of subjects [5]: 15
- Best Overall Response: Partial Response (PR), % of subjects [5]: 23.6%
- Best Overall Response: Partial Response (PR), number of subjects [5]: 29
- Best Overall Response: Progressive Disease (PD), % of subjects [5]: 25.2%
- Best Overall Response: Progressive Disease (PD), number of subjects [5]: 31
- Best Overall Response: Stable Disease (SD), % of subjects [5]: 37.4%
- Best Overall Response: Stable Disease (SD), number of subjects [5]: 46
- ORR (objective response rate, RECIST 1.1, no bone progression per PCWG3), % of subjects [5]: 25.2%
- ORR (objective response rate, RECIST 1.1, no bone progression per PCWG3), number of subjects [5]: 31
- Objective response confirmed: Complete Response (CR), % of subjects [5]: 1.6%
- Objective response confirmed: Complete Response (CR), number of subjects [5]: 2
- Objective response confirmed: Partial Response (PR), % of subjects [5]: 23.6%
- Objective response confirmed: Partial Response (PR), number of subjects [5]: 29
- Duration of objective response: 6-month event-free rate [6]: 0.471
- Duration of objective response: 12-month event-free rate [6]: 0.000
- Duration of objective response: 18-month event-free rate [6]: 0.000
- Duration of objective response: 24-month event-free rate [6]: 0.000
- Duration of objective response: Censored, % of subjects [6]: (22.6%)
- Duration of objective response: Censored, number of subjects [6]: 7
- Duration of objective response: Event, % of subjects [6]: (77.4%)
- Duration of objective response: Event, number of subjects [6]: 24
- Duration of objective response: time to event, 25th percentile [7]: 3.75 months
- Duration of objective response: time to event, 75th percentile [7]: 7.20 months
- Duration of objective response: time to event, Median [7]: 5.55 months
- CRR (composite response rate), % of subjects [8]: 57.7%
- CRR (composite response rate), number of subjects [8]: 82
- PSA50 (≥50% decline in prostate-specific antigen), % of subjects [8]: 43.0%
- PSA50 (≥50% decline in prostate-specific antigen), number of subjects [8]: 61
- Median rPFS in the BRCA cohort relative to the non-BRCA cohort (BRCA vs non-BRCA cohort): approximately double
- Time to PSA progression: 6-month event-free rate [9]: 0.393
- Time to PSA progression: 12-month event-free rate [9]: 0.067
- Time to PSA progression: Censored, % of subjects [9]: (40.1%)
- Time to PSA progression: Event, % of subjects [9]: (59.9%)
- Time to radiographic progression: 6-month event-free rate [9]: 0.593
- Time to radiographic progression: 12-month event-free rate [9]: 0.234
- Time to radiographic progression: 18-month event-free rate [9]: 0.046
- Time to radiographic progression: Censored, % of subjects [9]: (43.0%)
- Time to radiographic progression: Censored, number of subjects [9]: 61
- Time to radiographic progression: Event, % of subjects [9]: (57.0%)
- Time to radiographic progression: Event, number of subjects [9]: 81
- Time to symptomatic skeletal event: 6-month event-free rate [9]: 0.844
- Time to symptomatic skeletal event: 12-month event-free rate [9]: 0.543
- Time to symptomatic skeletal event: 18-month event-free rate [9]: 0.323
- Time to symptomatic skeletal event: 24-month event-free rate [9]: 0.323
- Time to symptomatic skeletal event: Censored, % of subjects [9]: (67.6%)
- Time to symptomatic skeletal event: Censored, number of subjects [9]: 96
- Time to symptomatic skeletal event: Event, % of subjects [9]: (32.4%)
- rPFS: 6-month event-free rate [9]: 0.572
- rPFS: 12-month event-free rate [9]: 0.215
- rPFS: 18-month event-free rate [9]: 0.043
- rPFS: Censored, % of subjects [9]: (38.7%)
- rPFS: Censored, number of subjects [9]: 55
- rPFS: Event, % of subjects [9]: (61.3%)
- rPFS: Event, number of subjects [9]: 87
- Time to PSA progression: Event, % of subjects [10]: 60%
- rPFS: Event, % of subjects [10]: 61%
- Time to PSA progression: time to event, 25th percentile [11]: 3.48 months
- Time to PSA progression: time to event, 75th percentile [11]: 11.07 months
